“Also recorded” adds a separate entry of the source.
How the values were obtained:
[1] = system: Z-138 xenograft tumors; experiment: Z-138 lymphoma cell line grown as a xenograft in SCID mice; format: in vivo, CB-17 SCID mice
Procedure: Z-138 (ATCC # CRL-3001) mantle cell lymphoma cells were obtained from ATCC. These cells were grown in IMEM medium supplemented with 10% horse serum, 1% penicillin and streptomycin, and 2 mM L-glutamine. […] Twenty-four (24) female CB-17 SCID mice (Charles River Labs strain code 236), aged 5 to 6 weeks were used. The SCID mice were inoculated in the left flank with Z-138 cells in a volume of 0.2 mL, equivalent to 4×10^7 cells per mouse. […] Mice were allocated to […] prior to the initiation of treatment based on tumor volume such that mean tumor volume in each group was within the range of 77 to 92 mm^3. […] Animals were fed with Labdiet® 5001 rodent chow and sterile water ad libitum. […] Animals with weight loss of more than 20% of their starting weight were euthanized. Mice with weight loss of more than 15% of their starting weight were not treated again until weight loss recovered to less than 5% of their starting weight. Any animals with a tumor volume of more than 1500 mm^3 were euthanized. Dosing solutions were prepared fresh on each day of dosing. […] This was prepared by dissolving the lyophilized powder in sterile water.

[2] = system: diet-induced obesity; experiment: Diet-induced obesity (DIO) model; format: in vivo, Sprague-Dawley rats
Procedure: Male Sprague-Dawley rats of age 2 months were placed on a high fat diet (Research Diets Inc., product code D12492, 60% kcal % fat) for 3 months. A group of age-matched rats were fed normal lab chow (LabDiet 5001, ˜13% kcal % fat), these animals served as controls for DIO group.
At age 4 months, and 2 months into placement of high fat diet, all rats were allocated into 3 groups of N=7 based on equivalent body weights and food intakes. Body weights and food and water intakes were measured at approximately the same time each day. On treatment days, dosing was at approximately 2 hours before lights off.
The DIO control group was treated with vehicle (oral, 10 mL/kg dose volume; 0.5% Pluronic F68 and 0.5% PVP K29/32 in water) on each weekday. The Compound 21.5 mg/kg group was orally treated on each weekday throughout the treatment phase (dose 10 mL/kg dose volume; 0.5% Pluronic F68 and 0.5% PVP K29/32 in water). The Compound 2 3 mg/kg group (10 mL/kg dose volume; 0.5% Pluronic F68 and 0.5% PVP K29/32 in water) was orally treated initially once daily on each weekday for week 1, then twice weekly (Monday, Wednesday) for week 2. During treatment weeks 3 and 4, Compound 2 3 mg/kg treatment continued twice weekly, except dosing was on Monday and Thursday.
Prior to the treatment phase, 3 days baseline data were collected. The treatment phase was for 4 weeks. A washout phase of 10 days was also included.
Compound 2 was supplied in powder form. […] Active percentage was adjusted using BEW of 1.437 and prepared by dissolving into 0.5% w/v Pluronic F-68 and 0.5% w/v PVP K-29-32 vehicle solution. The vehicle solution was prepared on a weekly basis while Compound 2 was prepared fresh every 2 days and stored at +4° C. Animals were dosed at a volume of 10 mL/kg. Individual doses were calculated based on the most recent body weights to provide the proper mg/kg/day dosage.

[3] = system: Nrf2 pathway; experiment: Nrf2 pathway induction in THP-1 cells with or without KEAP1 knockdown (quantitative PCR); format: cell-based, human
Excerpt: THP-1 (human acute monocytic leukemia cells) cells were used to evaluate the effects of Compound 1 on the Nrf2 pathway in an inflammation environment. Nuclear factor (erythroid-derived 2)-like 2 (Nrf2) is an anti-inflammatory transcription factor. Under normal conditions, Nrf2 is kept in the cytoplasm by Kelch like-ECH associated protein 1 (KEAP1), which degrades Nrf2 by ubiquitination. Nrf2 can also move into the nucleus and back into the cytoplasm as a CRM1 cargo. In the current study, Nrf2 was protected from degradation by knocking down KEAP1 with siRNA. Then, KEAP1-depleted cells were treated with TNFα to induce inflammation, and the ability of Compound 1 to reverse inflammation by up-regulation of the Nrf2 pathway was tested.
THP-1 (acute monocytic leukemia) cells were plated in two 10 cm culture dishes (6*10^6 cells/dish) with RPMI-1640 medium (Lonza) supplemented with 10% heat-inactivated fetal bovine serum (Invitrogen) and 2-mercaptoethanol to a final concentration of 0.05 mM. Cells in one dish were transfected with 50 nM of KEAP1 siRNA (Life Technologies, Silencer Select, siRNA ID# s18982) using Lipofectamine RNAiMax (Invitrogen), whereas the cells in the other dish were transfected with 50 nM of control siRNA, Block-iT (Invitrogen). Transfected cells were left for 72 h and the KEAP1 knockdown efficiency was calculated with quantitative PCR using a probe against KEAP1.
Next, the cells from each of the dishes were divided equally into 4 wells in different 6-well plates. One of the wells from each of the plates was pre-treated with 1 μM of Compound 1 for 1 h, followed by 20 ng/mL TNFα for 24 h. The other wells were treated with either 1 μM Compound 1 or 20 ng/mL TNFα or neither for 24 h. Following the treatment, RNA was extracted from the cells using an RNA extraction kit (Qiagen). RNA samples from each treatment group were reverse transcribed and real-time PCR was performed on the corresponding cDNA sequences using probes against Nrf2 and two of its downstream genes, NQO1 and EPHX1. THP-1 cells were transfected with KEAP1 siRNA. 40% knockdown efficiency was achieved. […]

[4] = system: COX-2; experiment: COX-2 protein expression in HeLa cells (immunoblot); format: cell-based; settings: 1 μM Compound 1 + 20 ng/ml TNFα, 24 hours
Procedure: HeLa cells were plated in a 6-well culture dish (5×10^5 cells/well) with EMEM medium (Lonza) supplemented with 10% heat-inactivated fetal bovine serum (Invitrogen). Two of the wells of the plate were pre-treated with 1 μM of Compound 1 for 30 minutes, at which time one of the wells was exposed to 20 ng/ml TNFα (Preprotech) for 24 hours. The other wells were treated with either 20 ng/ml TNFα or nothing for 24 hours. Following the treatment, whole-cell lysates were generated from the cells by lysis with RIPA buffer supplemented with protease and phosphatase inhibitors (Roche). Immunoblot detection of COX-2 protein was performed using an anti-COX-2 antibody (Cayman). Signal intensity for the COX-2 protein was normalized to that of beta-actin (Santa Cruz) for each sample and plotted graphically as arbitrary intensity units.

O=C(/C=C\n1cnc(-c2cc(C(F)(F)F)cc(C(F)(F)F)c2)n1)NNC(=O)CN1CCOCC1 [Compound 2, (Z)-3-(3-(3,5-bis(trifluoromethyl)phenyl)-1H-1,2,4-triazol-1-yl)-N′-(2-morpholinoacetyl)acrylohydrazide]
weight loss ([1]; Compound 2 15 mg/kg PO, significant vs vehicle, severe loss limited to a few animals): Some weight loss was observed | antitumor effect ([1]; Compound 2 orally, 7.5 and 15 mg/kg MWF): had antitumor effect at both 7.5 mg/kg and 15 mg/kg doses in a dose dependent manner | daily food intake and body weight compared to DIO control group ([2]; 1.5-3 mg/kg oral, 28 day treatment period): dose-related decrease in daily food intake and body weight; also recorded: decreases daily food intake in a dose dependent manner | body weight gain (percentage of body weight change from study day 3) compared to DIO controls ([2]; 1.5 and 3 mg/kg, treatment days 7 (study day 10) and 14 (study day 17)): significant reduction in weight gain | body weight over the washout phase ([2]; washout phase, both Compound 2 groups): remained lower than DIO controls

CC(C)(C)C(=O)NNC(=O)/C=C\n1cnc(-c2cc(C(F)(F)F)cc(C(F)(F)F)c2)n1 [Compound 1, (Z)-3-(3-(3,5-bis(trifluoromethyl)phenyl)-1H-1,2,4-triazol-1-yl)-N′-pivaloylacrylohydrazide]
EPHX1 expression ([3]; 1 μM Compound 1, presence or absence of TNFα): up-regulated the expression of EPHX1 in the presence or absence of TNFα | Nrf2 expression ([3]; 1 μM Compound 1 alone, with or without KEAP1 knockdown): did not have any significant effect on Nrf2 expression | Nrf2 signaling ([3]; 1 μM Compound 1 for 24 hrs with 20 ng/mL TNFα): up-regulated Nrf2 signaling | COX-2 protein expression [4]: decreased the amount of COX-2 protein in the presence of TNFα; also recorded: does reduce the amount of TNFα induced expression of COX-2 protein; also recorded: inhibits TNFα-induced COX-2 protein expression
